Results as given in publication PMC9457533, “Study on Metronidazole Acid-Base Behavior and Speciation with Ca^2+ for Potential Applications in Natural Waters” (Molecules, 2022).
Where “and” joins values, the source holds several entries; their conditions need not be identical. Identical values can stand only once. Like-named read-outs stand apart in the source and are kept apart here.

How the values were obtained:
[1] = UV-Vis spectrophotometric titrations: formation constant of Ca^2+-MNZ species; format: physicochemical; details: Ca + L + H = CaLH; t = 25 °C, I = 0.15 mol L^-1
Description: (§1) As widely reported in the literature, the high ability of L to absorb in the UV range has often been used to determine quantitatively and qualitatively this antibiotic in waters. Various spectrophotometric titrations on solutions containing L and M-L mixtures were performed to investigate L spectral behavior and to confirm the protonation and formation constants values as well as the speciation model obtained by potentiometry, as already shown with other systems.
(§2) The spectrophotometric titrations were performed with a Varian Cary 50 UV-Vis spectrophotometer characterized by an optical fiber with a fixed 1 cm path length. The system was interfaced to a PC by the Varian Cary WinUV software. For all titrations, a Thermo-Fisher glass electrode was also used to record simultaneously the couple of data absorbance (A) and e.m.f. (mV) vs. volume of titrant (mL), for each titration point. The analyses were carried out in a thermostated cell, in which N2 was bubbled in solution to avoid CO2 and O2.
The protonation constant of MNZ (L), formation constant values of Ca^2+(M)-MNZ (L), and titration parameters (analytical concentration of the reagents, standard potential E^0, junction potential) were determined by using BSTAC and STACO programs. […] The speciation diagrams and the formation percentage of the species are determined by the Hyss program.

[2] = parameters: method as in PMID 33975173; details: t = 25 °C, I = 0.1 mol L^-1 in NaClO4, spectrophotometry; cited from earlier work
[3] = UV-Vis spectrophotometric titrations: protonation constants of MNZ; format: physicochemical; details: t = 25 °C; for logβ UV: I = 0.15 mol L^-1
Description: as §1, §2
(§3) The protonation constant of MNZ (L), formation constant values of Ca^2+(M)-MNZ (L), and titration parameters (analytical concentration of the reagents, standard potential E^0, junction potential) were determined by using BSTAC and STACO programs. LIANA program has provided the parameters characterizing the dependence of the protonation and formation constant values on the temperature and ionic strength. More details on software are present in ref. [59]. ^1H NMR data were processed by HypNMR software, which allows for calculating protonation and formation constant values and the individual chemical shift of species through the observed signals and assuming fast mutual exchange in the NMR time scale. UV-Vis data are processed by the HypSpec program, which allows refining of the protonation and formation constant as well as the molar absorption coefficient values (ε) of the species. The speciation diagrams and the formation percentage of the species are determined by the Hyss program.

[4] = Distribution diagram of MNZ species vs pH; format: physicochemical; details: t = 25 °C, I = 0.15 mol L^-1, CL = 2 mmol L^-1, 4 ≤ pH ≤ 10
Description: as §3

[5] = parameters: method as in PMID 23380153; details: 25 °C, I = 0.2 mol L^-1 in NaCl, water-ethanol (90:10, v/v), potentiometric titrations; cited from earlier work
[6] = parameters: method as in earlier work; details: t = 25 °C, I = 0.5 mol L^-1 in KCl, potentiometry; cited from earlier work
[7] = 1H NMR titrations: protonation constants of MNZ; format: physicochemical; details: t = 25 °C, I = 0.15 mol L^-1
Description: The acid-base behavior of the ligand was also investigated by ^1H NMR. Various spectroscopic titrations were therefore carried out on solutions containing L to determine the values of the chemical shifts, and to refine the protonation constant values. The ^1H NMR spectra, shown in Figure 5 at various pH values and t = 25 °C, show four distinct signals: a singlet associated with CH3 protons, two triplets related to the protons of the two CH2, indicated as CH2a and CH2b, and a singlet of the CH proton present in the imidazole ring. An upfield of 0.3 ppm of the CH chemical shift can be observed as a consequence of the deprotonation of the imidazole group for the pH increase. A similar behavior can be observed for the CH3 in which the chemical shift is 0.2 ppm. […] Furthermore, M-L solutions were analyzed by ^1H NMR at t = 25 °C and I = 0.15 mol L^−1, using a procedure already employed for other systems. The experimental spectra were reported in the Supplementary Materials.
NMR measurements were performed by Varian 500 NMR spectrometer. The ^1H NMR spectra were recorded using 90% H2O and 10% D2O as solvent and the chemical shifts were referred to the 1,4-dioxane signal (δCHdioxane = 3.7 ppm). […] Ca^2+-L spectra were recorded at the same conditions of ionic strength, temperature, and pH range of the free ligand. […]

[8] = Dependence of protonation constants on temperature (van't Hoff equation), thermodynamic parameters; format: physicochemical; details: t = 298.15 K, I = 0.15 mol L^-1 NaCl
Description: The protonation and formation constants values acquired at the three different temperatures of 15, 25, and 37 °C, listed in Table 1, were used to study their dependence on temperature, as already shown for several systems. The data obtained by the potentiometric measurements were analyzed using the following van’t Hoff equation:logβT = logβθ + ΔH^0(1/θ − 1/T) R ln 10(6) where logβT is the stability constant at a certain temperature (expressed in kelvin), while logβθ is the stability constant at t = 298.15 K, and R is the universal gas constant expressed as 8.314 J K^−1 mol^−1. Using the equation just reported, it was possible to calculate the protonation and formation enthalpies change values, together with Gibbs free energy and entropy changes.
as §3

logβ UV [1]: 14.17(2)
logβ UV ([3]; L + 2H = LH2): 14.20(6)
logβ UV ([3]; L + H = LH): 11.73(2) ^1
logK2 (protonation constant) ([3]; UV spectrophotometry, I = 0.15 mol L^-1 in NaCl): 2.47
maximum ligand fraction of the mono-protonated species [4]: over 0.9
logβ H-NMR ([7]; L + 2H = LH2): 14.13(1)
logβ H-NMR ([7]; L + H = LH): 11.81(1) ^1
TΔS ([8]; L + H = LH): 14.1 kcal/mol
ΔG ([8]; L + H = LH): -15.9 kcal/mol
ΔH ([8]; L + H = LH): -8 kJ mol^-1 and −8(7) kJ mol^-1
TΔS ([8]; LH + H = LH2): 0.24 kcal/mol
ΔG ([8]; LH + H = LH2): -3.35 kcal/mol
ΔH ([8]; LH + H = LH2): -13 kJ mol^-1 and −13(3) kJ mol^-1
Compound: Cc1ncc([N+](=O)[O-])n1CCO [MNZ, 2-Methyl-5-nitroimidazole-1-ethanol]
logK2 (protonation constant) [2]: 2.15
logK1 (protonation constant) [5]: 18.1
logK2 (protonation constant) [5]: 7.01
logK3 (protonation constant) [5]: 2.64
logK2 (protonation constant) [6]: 2.68
